In patent US10195201B2, “Heteroaryl-pyrimidinone compounds as PDE2 inhibitors” (Merck Sharp & Dohme Corp., priority 2015, dated 2019):

target: human PDE2A1 (Homo sapiens (Human), UniProt O00408); assay: PDE2 fluorescence polarization (IMAP FP) inhibition assay, human enzyme; format: biochemical; conditions: LabB; read-out: hPDE2 Ki (nM) LabB
Experimental: (§1) The activity of the compounds in accordance with the present invention as PDE2 inhibitors may be readily determined using a fluorescence polarization (FP) methodology (Huang, W., et al., J. Biomol Screen, 2002, 7: 215).
Selectivity for PDE2, as compared to other PDE families, was assessed using the IMAPR technology. Human PDE10A2 enzyme was prepared from cytosolic fractions of transiently transfected HEK cells. All other PDE's were GST Tag human enzyme expressed in insect cells and were obtained from BPS Bioscience (San Diego, Calif.): PDE1A (Cat#60010), human PDE2A1(Cat#60020), PDE3A (Cat#60030), PDE4A1A (Cat#60040), PDE5A1 (Cat#60050), PDE6C (Cat#60060), PDE7A (Cat#60070), PDE8A1 (Cat#60080), PDE9A2 (Cat#60090), PDE11A4 (Cat#60110).
Assays for PDE 1 through 11 were performed in parallel at room temperature in 384-well microtiter plates with an incubation volume of 20.2 μL. Solutions of test compounds were prepared in DMSO and serially diluted with DMSO to yield 30 μL of each of ten solutions differing by 3-fold in concentration, at 32 serial dilutions per plate. […] A Labcyte POD 810 (Labcyte, Sunnyvale, Calif.) was used to dispense 200 nL from each well of the titration plate to make eleven copies of the assay plate for each titration, one copy for each PDE enzyme. A solution of each enzyme (dilution from aliquots, sufficient to produce 20% substrate conversion) and a separate solution of FAM-labeled cAMP or FAM-labeled cGMP from Molecular Devices (Sunnyvale, Calif., product # R7506 or cGMP#R7508), at a final concentration of 50 nM were made in the assay buffer (10 mM Tris HCl, pH 7.2, 10 mM MgCl2, 0.05% NaN3 0.01% Tween-20, and 1 mM DTT). Note that the substrate for PDE2 is 50 nM FAM cAMP containing 1000 nM of cGMP. The enzyme and the substrate were then added to the assay plates in two consecutive additions of 10 μL and then shaken to mix. The reaction was allowed to proceed at room temperature for 60 minutes. A binding solution was then made from the kit components, comprised of 80% Solution A, 20% Solution B and binding reagent at a volume of 1/600 the total binding solution. The enzymatic reaction was stopped by addition of 60 μL of the binding solution to each well of the assay plate. The plates were sealed and shaken for 10 seconds. The plates were incubated at room temperature for one hour, then the parallel and perpendicular fluorescence was measured using a Tecan Genios Pro plate reader (Tecan, Switzerland). The apparent inhibition constants for the compounds against all 11 PDE's was determined from the parallel and perpendicular fluorescent readings as described for PDE10 FP assay using the following apparent KM values for each enzyme and substrate combination: PDE1A (FAM cGMP) 70 nM, human PDE2A1 (FAM cAMP) 10,000 nM, PDE3A (FAM cAMP) 50 nM, PDE4A1A (FAM cAMP) 1500 nM, PDE5A1 (FAM cGMP) 400 nM, PDE6C (FAM cGMP) 700 nM, PDE7A (FAM cAMP) 150 nM, PDE8A1 (FAM cAMP) 50 nM, PDE9A2 (FAM cGMP) 60 nM, […] (FAM cAMP) 150 nM, PDE11A4 (FAM cAMP) 1000 nM. The intrinsic PDE2 inhibitory activity of a compound which may be used in accordance with the present invention may be determined by these assays. […]

Chain of human PDE2A1 (O00408 other isoform, or with tags, fused parts or gaps): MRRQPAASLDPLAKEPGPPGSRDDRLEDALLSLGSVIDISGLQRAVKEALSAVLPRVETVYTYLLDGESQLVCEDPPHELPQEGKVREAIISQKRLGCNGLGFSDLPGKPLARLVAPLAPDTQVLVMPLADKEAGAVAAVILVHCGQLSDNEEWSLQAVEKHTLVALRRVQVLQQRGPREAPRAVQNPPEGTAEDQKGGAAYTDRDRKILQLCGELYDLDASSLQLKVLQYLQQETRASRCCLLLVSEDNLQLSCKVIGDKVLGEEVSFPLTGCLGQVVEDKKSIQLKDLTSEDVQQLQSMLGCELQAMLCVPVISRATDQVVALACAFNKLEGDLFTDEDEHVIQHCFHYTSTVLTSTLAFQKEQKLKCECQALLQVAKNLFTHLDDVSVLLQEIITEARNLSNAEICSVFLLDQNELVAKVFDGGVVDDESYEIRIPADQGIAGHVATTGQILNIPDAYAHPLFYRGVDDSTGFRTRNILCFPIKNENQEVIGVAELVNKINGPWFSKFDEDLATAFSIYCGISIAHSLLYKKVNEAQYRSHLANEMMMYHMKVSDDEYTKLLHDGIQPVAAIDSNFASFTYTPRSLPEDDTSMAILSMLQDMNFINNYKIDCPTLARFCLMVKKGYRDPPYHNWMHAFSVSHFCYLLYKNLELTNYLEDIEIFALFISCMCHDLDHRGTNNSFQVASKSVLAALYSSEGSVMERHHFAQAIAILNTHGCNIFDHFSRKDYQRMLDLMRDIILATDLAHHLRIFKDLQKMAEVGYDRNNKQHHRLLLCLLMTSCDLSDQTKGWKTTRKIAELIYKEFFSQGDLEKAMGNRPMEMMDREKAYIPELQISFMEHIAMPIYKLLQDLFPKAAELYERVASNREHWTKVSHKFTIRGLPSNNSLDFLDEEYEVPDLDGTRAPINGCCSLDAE

Row | Ki [nM] | Structure (SMILES)
1 | 65 | Cc1nc(-c2cc(C(C)c3ccc(C(C)(F)F)cc3)ncn2)cc(=O)[nH]1 (single isomer, unassigned) [Example 37, (S)- or (R)-6′-(1-(4-(1,1-difluoro-ethyl)phenyl)ethyl)-2-methyl-[4,4′-bipyrimidin]-6(1H)-one]
2 | 232 | Cc1nc(-c2cc(C(C)c3ccc(OC(F)F)c(F)c3)ncn2)cc(=O)[nH]1 (single isomer, unassigned) [Example 35, (S)- or (R)-6′-(1-(4-(difluoro-methoxy)-3-fluorophenyl)ethyl)-2-methyl-[4,4′-bipyrimidin]-6(1H)-one]
3 | 30 | Cc1nc(-c2cc(C(C)c3ccc(C(F)F)c(F)c3)ncn2)cc(=O)[nH]1 (single isomer, unassigned) [Example 38, (R)- or (S)-6′-(1-(4-(difluoro-methyl)-3-fluoro-phenyl)ethyl)-2-methyl-[4,4′-bipyrimidin]-6(1H)-one]
4 | 16 | Cc1nc(-c2cc([C@@H](C)c3ccc(C(F)(F)F)cc3F)ncn2)cc(=O)[nH]1 (single isomer, unassigned) [Example 31]
5 | 890 | Cc1nc(-c2cc([C@H](C)c3ccc(C(C)(C)O)cc3)ncn2)cc(=O)[nH]1 (single isomer, unassigned) [Example 46]
6 | 20 | Cc1nc(-c2cc(C(C)c3ccc(C(C)(F)F)cc3)ncn2)cc(=O)[nH]1 (single isomer, unassigned) [Example 36, (R)- or (S)-6′-(1-(4-(1,1-difluoro-ethyl)phenyl)ethyl)-2-methyl-[4,4′-bipyrimidin]-6(1H)-one]
7 | 1.8 | Cc1nc(-c2cc(C(C)c3ccc(OC(F)(F)F)c(F)c3)ncn2)cc(=O)[nH]1 (single isomer, unassigned) [Example 40, (R)- or (S)-6′-(1-(3-fluoro-4-(trifluoro-methoxy)phenyl)ethyl)-2-methyl-[4,4′-bipyrimidin]-6(1H)-one]
8 | 194 | Cc1nc(-c2cc(C(C)c3ccc(OC(F)(F)F)cc3)ncn2)cc(=O)[nH]1 (single isomer, unassigned) [Example 45, (S)- or (R)-2-methyl-6′-(1-(4-(trifluoro-methoxy)phenyl)ethyl)-[4,4′-bipyrimidin]-6(1H)-one]
9 | 1720 | Cc1nc(-c2cc([C@H](C)c3ccc(C(C)(C)O)cc3)ncn2)cc(=O)[nH]1 (single isomer, unassigned) [Example 47]
10 | 4.1 | Cc1nc(-c2cc(C(C)c3ccc(OC(F)(F)F)cc3)ncn2)cc(=O)[nH]1 (single isomer, unassigned) [Example 44, (R)- or (S)-2-methyl-6′-(1-(4-(trifluoro-methoxy)phenyl)ethyl)-[4,4′-bipyrimidin]-6(1H)-one]
11 | 174 | Cc1nc(-c2cc(C(C)c3ccc(C(F)F)c(F)c3)ncn2)cc(=O)[nH]1 (single isomer, unassigned) [Example 39, (S)- or (R)-6′-(1-(4-(difluoro-methyl)-3-fluoro-phenyl)ethyl)-2-methyl-[4,4′-bipyrimidin]-6(1H)-one]
12 | 13 | Cc1nc(-c2cc(C(C)c3ccc(OC(F)F)c(F)c3)ncn2)cc(=O)[nH]1 (single isomer, unassigned) [Example 34, (R)- or (S)-6′-(1-(4-(difluoro-methoxy)-3-fluorophenyl)ethyl)-2-methyl-[4,4′-bipyrimidin]-6(1H)-one]
13 | 39 | Cc1nc(-c2cc([C@@H](C)c3ccc(C(F)(F)F)cc3F)ncn2)cc(=O)[nH]1 (single isomer, unassigned) [Example 30]

Row | Structure (SMILES) | Ki [nM]
14 | Cc1nc(-c2cc(C(C)c3ccc(C(F)(F)F)cc3)ncn2)cc(=O)[nH]1 (single isomer, unassigned) [Example 32, (R)- or (S)-2-methyl-6′-(1-(4-(trifluoromethyl)phenyl)ethyl)-[4,4′-bipyrimi-din]-6(1H)-one] | 64

target: Rhesus PDE2A3 (Macaca mulatta, UniProt B3VTJ2); assay: PDE2 fluorescence polarization (IMAP FP) inhibition assay, rhesus enzyme; format: biochemical, rhesus macaque; conditions: LabA; read-out: rhPDE2 Ki (nM) LabA
Experimental: as §1
In a typical experiment the PDE2 inhibitory activity of the compounds of the present invention was determined in accordance with the following experimental method. Rhesus PDE2A3 was amplified from rhesus macaque brain cDNA (Biochain Institute, Hayward, Calif.) using primers based on human PDE2A sequence (accession NM_002599.3) where the forward primer containing a Kozak consensus was 5′-[…]-3′ and the reverse primer was 5′-[…]-3′. Amplification with Easy-A High-Fidelity PCR cloning enzyme (Stratagene, La Jolla, Calif.) was 95° C. for 2 minutes followed by thirty three cycles of 95° C. for 40 seconds, 52° C. for 30 seconds, and 72° C. for 2 minutes 48 seconds. Final extension was 72° C. for 7 minutes. The PCR product was TA cloned into pcDNA3.3-TOPO (Invitrogen, Carlsbad, Calif.) according to standard protocol. A consensus sequence was developed from multiple clones and then deposited into GenBank (EU812167). AD293 cells (Stratagene, La Jolla, Calif.) with 70-80% confluency were transiently transfected with rhesus PDE2A3/pcDNA3.3-TOPO using Lipofectamine 2000 according to manufacturer specifications (Invitrogen, Carlsbad, Calif.). Cells were harvested 48 hours post-transfection and lysed by sonication (setting 3, 10×5 sec pulses) in a buffer containing 20 mM HEPES pH 7.4, 1 mM EDTA and Complete Protease Inhibitor Cocktail Tablets (Roche, Indianapolis, Ind.). Lysate was collected by centrifugation at 75,000×g for 20 minutes at 4° C. and supernatant utilized for evaluation of PDE2 activity. The fluorescence polarization assay for cyclic nucleotide phosphodiesterases was performed using an IMAP® FP kit supplied by Molecular Devices, Sunnyvale, Calif. (product # R8139). […] Assays were performed at room temperature in 384-well microtiter plates with an incubation volume of 20.2 μL. Solutions of test compounds were prepared in DMSO and serially diluted with DMSO to yield 8 μL of each of 10 solutions differing by 3-fold in concentration, at 32 serial dilutions per plate. […] 0% of inhibition is determined by using DMSO (1% final concentrations).
A Labcyte Echo 555 (Labcyte, Sunnyvale, Calif.) is used to dispense 200 nL from each well of the titration plate to the 384 well assay plate. Ten microliters of a solution of enzyme (1/2000 final dilution from aliquots; sufficient to produce 20% substrate conversion) was added to the assay plate. Next 10 uL of a separate solution of the substrate FAM-labeled cAMP (50 nM final concentration product # R7506 from Molecular Devices) and the activator cGMP (1 uM final concentration), prepared in the assay buffer (10 mM Tris HCl, pH 7.2, 10 mM MgCl2, 0.05% NaN3 0.01% Tween-20, and 1 mM DTT) was added to the assay plate and shaken to mix. The reaction is allowed to proceed at room temperature for 60 minutes. A binding solution is then made from the kit components, comprised of 80% Solution A, 20% Solution B and binding reagent at a volume of 1/600 the total binding solution. The enzymatic reaction is stopped by addition of 60 μL of the binding solution to each well of the assay plates and the plates are sealed and shaken for 30 seconds. The plate was incubated at room temperature for at least one hour prior to determining the fluorescence polarization (FP). The parallel and perpendicular fluorescence of each well of the plate was measured using a Tecan Genios Pro plate reader (Tecan, Switzerland) or Perkin Elmer EnVision™ plate reader (Waltham, Mass.). Fluorescence polarization (mP) was calculated from the parallel (S) and perpendicular (P) fluorescence of each sample well and the analogous values for the median control well, containing only substrate (So and Po), using the following equation: Polarization (mP)=1000*(S/So−P/Po)/(S/So+P/Po).

Chain of Rhesus PDE2A3 (B3VTJ2 1-941): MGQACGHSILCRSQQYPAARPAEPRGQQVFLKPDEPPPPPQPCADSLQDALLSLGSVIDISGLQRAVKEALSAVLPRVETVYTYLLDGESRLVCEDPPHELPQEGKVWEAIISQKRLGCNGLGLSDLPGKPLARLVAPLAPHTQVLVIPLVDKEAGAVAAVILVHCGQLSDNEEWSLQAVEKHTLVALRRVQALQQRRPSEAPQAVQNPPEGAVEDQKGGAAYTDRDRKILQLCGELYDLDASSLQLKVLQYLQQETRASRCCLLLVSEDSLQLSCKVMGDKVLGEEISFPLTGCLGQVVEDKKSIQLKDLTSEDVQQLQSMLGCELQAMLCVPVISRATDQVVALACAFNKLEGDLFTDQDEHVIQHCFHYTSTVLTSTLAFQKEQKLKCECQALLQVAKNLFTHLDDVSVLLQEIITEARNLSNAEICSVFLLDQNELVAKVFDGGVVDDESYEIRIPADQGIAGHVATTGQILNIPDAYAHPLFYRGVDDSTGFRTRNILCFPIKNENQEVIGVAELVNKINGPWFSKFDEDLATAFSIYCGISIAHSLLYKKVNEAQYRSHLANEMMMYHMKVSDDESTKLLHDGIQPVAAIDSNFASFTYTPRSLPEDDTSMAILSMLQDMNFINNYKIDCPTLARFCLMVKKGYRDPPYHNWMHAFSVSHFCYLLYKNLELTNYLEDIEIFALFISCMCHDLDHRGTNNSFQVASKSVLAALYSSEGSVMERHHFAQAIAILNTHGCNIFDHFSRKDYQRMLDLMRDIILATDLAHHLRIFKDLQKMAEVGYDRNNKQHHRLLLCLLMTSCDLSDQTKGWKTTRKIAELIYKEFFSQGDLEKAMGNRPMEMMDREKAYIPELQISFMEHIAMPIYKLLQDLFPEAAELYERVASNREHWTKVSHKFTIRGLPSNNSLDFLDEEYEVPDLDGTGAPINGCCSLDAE

Row | Ki [nM] | Structure (SMILES)
15 | 1870 | Cc1nc(-c2nc(C(C)c3ccc(C(F)(F)F)cc3)no2)cc(=O)[nH]1 (stereo not shown) [Example 12, 2-Methyl-6-(3-(1-(4-(trifluoromethyl)phenyl)ethyl)-1,2,4-oxadiazol-5-yl)pyrimidin-4(3H)-one]

same assay, conditions: LabB; read-out: rhPDE2 Ki (nM) LabB

Row | Ki [nM] | Structure (SMILES)
16 | 2410 | Cc1nc(-c2nc(C(C)c3ccc(C(F)(F)F)cc3)no2)cc(=O)[nH]1 (stereo not shown) [Example 12, 2-Methyl-6-(3-(1-(4-(trifluoromethyl)phenyl)ethyl)-1,2,4-oxadiazol-5-yl)pyrimidin-4(3H)-one]
